One data set concerns E. coli. The data set can be described thus: Zeta potential of E. coli in the presence of defensins. As to conditions: for E. coli surface charge neutralizing ability (change in zeta potential): 5 μM defensin, except HD5 2.5 μM and HBD3 0.5 μM, three independent experiments; for concentration found to neutralize the E. coli surface charge almost completely: zeta potential of E. coli. In kind it is cell-based, Escherichia coli. As to the method:
Zeta potential of the E. coli in the presence of human defensins was measured as described previously. The concentration of peptide used was 5μM, except for HBD3 and HD5. […] Cells were treated with 5 μM defensin and zeta potential was measured, except in the cases of HD5 and HBD3. In the cases of HD5 and HBD3, zeta potential was measured after treating with 2.5 μM and 0.5 μM of peptides, respectively. Control represent zeta potential of E. coli in the absence of any peptide. Error bars represents standard deviations of three independent experiments.

The subject of data set [1] is E. coli inner membrane. As to the kind of experiment: Time-lapse fluorescence confocal microscopy (SYTOX green / FM4-64). In kind it is cell-based, Escherichia coli. The conditions noted are these: for Intracellular accumulation of SYTOX green (E. coli inner membrane permeabilization): sub-lethal concentrations: HBD1 3 μM, HBD2 3 μM, HBD3 1 μM, HBD4 3 μM, HNP3 8 μM, HNP4 4 μM, HD5 2.5 μM, HD6 5 μM, 10^6 CFU/mL, 10 mM sodium phosphate buffer pH 7.4; for Intracellular accumulation of SYTOX green (E. coli inner membrane permeabilization) / time at which SYTOX green accumulation is evident: 5 nM SYTOX green; for time at which SYTOX green accumulation is evident: sub-lethal defensin concentrations, time-lapse confocal microscopy. Here is the method: Effect of defensins on the E. coli inner membrane was examined using time-lapse confocal fluorescence microscopy. The assay was carried out as follows. Bacteria from the mid-log-phase was collected and resuspended (final density was adjusted to 10^6 CFU/mL) in 10 mM sodium phosphate buffer (pH 7.4). Cells were then treated with 3 μM FM4-64 for 20 minutes at room temperature to stain the inner membrane. FM4-64 is a lipophilic dye which stains the bacterial inner membrane. Excess dye was removed by centrifuging. The FM4-64 stained cells were then treated with sub-lethal concentrations of defensins in presence of 5 nM of SYTOX green. […] Cells were immediately transferred to chambered slides and images were recorded using 100X oil immersion objective on a Leica Ultraspectral microscope SP8 (Leica Microsystems). Argon 488 and HeNe 561 lasers were used to excite SYTOX green and FM4-64, respectively. Signals ranging from 510 to 560 nm and 600 to 740 nm were collected for SYTOX green and FM4-64, respectively. Images were processed using LAS-AFver3.1.3 (Leica Microsystems).

The subject of data set [2] is E. coli inner membrane. The data set can be described thus: SYTOX green uptake assay using fluorescent spectroscopy. In kind it is cell-based, Escherichia coli. As to conditions: 2 × MBC of defensins, 200 nM SYTOX green, 5 × 10^6 CFU/mL, 10 mM phosphate buffer. As to the method:
Effect of defensins on the E. coli inner membrane was assessed by measuring the extent of intracellular accumulation of SYTOX green. Cells from mid-log-phase were collected, washed and resuspended in 10 mM phosphate buffer. The final density was adjusted to 5 × 10^6 CFU/mL. […] Enhancement in SYTOX green fluorescence, a direct measure of the extent of membrane permeabilization was monitored in a Flurolog 3–22 fluorescence spectrophotometer (Jobin Yvon, USA). Excitation and emission wavelengths used were 503 nm and 523 nm, respectively.  Fig 4 Accumulation of SYTOX green in human defensins treated E. coli. […] The arrows indicate the point at which defensins were added.

Data set [3] in a line: Calcein release assay from lipid vesicles. As to conditions: calcein entrapped POPC:POPG (1:1) LUVs, 25 μM, 10 mM sodium phosphate buffer pH 7.4, increasing defensin concentrations; 1% Triton X-100 = 100%. As to the method:
Large unilamellar vesicles (LUVs) composed of POPC:POPG (1:1) containing 50 mM calcein were prepared by lipid extrusion method. Desired amounts of lipids from their respective chloroform stocks were taken into a glass tube and dried under a nitrogen stream to form a thin uniform lipid film. The film was further dried under vacuum for 5 to 6 hours to remove trace amounts of organic solvents. After this step, the lipid film was hydrated with 10 mM sodium phosphate buffer (pH 7.4) containing 50 mM calcein at 4°C for 12 to 15 hours. Hydrated lipid films were then vortexed and passed through polycarbonate membrane having a pore diameter of 100 nm using a mini-extruder (Avanti Polar Lipid Inc.). Free calcein was removed by passing through a Sephadex G50 column. Calcein entrapped vesicles (25 μM) were then treated with increasing concentrations of defensins and extent of calcein released was measured in a Fluorolog 3–22 fluorescence spectrophotometer (Jobin Yvon, USA). Excitation and emission wavelengths used were 485 and 515 nm, respectively. 1% Triton X-100 was used for complete release of calcein.  Fig 5 Effect of human defensins on POPC:POPG (1:1) vesicles. Calcein entrapped POPC: POPG vesicles (25 μM) were treated with increasing concentrations of human defensins and percentage of calcein released was calculated. Calcein released by 1% Triton X-100 was taken as 100%.

Data set [4] can be described thus: Transmission electron microscopy of defensin aggregates. The class given is physicochemical. As to conditions: 20 μM defensin in 10 mM sodium phosphate buffer pH 7.4, uranyl acetate stain, TEM. As to the method: Defensins were diluted to a concentration of 20 μM in 10 mM sodium phosphate buffer (pH 7.4) from their respective stocks solutions (dissolved in Milli-Q water). From these solutions, 5 μL was deposited on a carbon-coated Formvar 200-mesh copper grid. The grid was left undisturbed for about 5 minutes; excess buffer was then removed using Whatman filter paper. Grids were stained with uranyl acetate (2% w/v) for 45 seconds. Excess stain was removed and grids were used for recording the images. Images were recorded using JAM-2100 LaB6 transmission electron microscope (JEOL, Tokyo, Japan) at 100 kV.

Data set [5] relates to E. coli inner membrane. The conditions noted are these: ref Wang et al. [55]; cited from earlier work. As to the method:
Recent findings indicate HD5 exerts its activity against the E. coli by localizing to bacterial cytoplasm and possibly interacting with DNA [39]. In a very recent study, Wang et al., have shown that HD5 permeabilizes the E. coli inner membrane. However, prolonged incubation (~40 minutes) was required t ...

A further data set has as its system E. coli MG1655. The conditions noted are these: cited from earlier work. The text has this: Table 2 Minimum Bactericidal Concentration (MBC) of human defensins against E. coli MG1655. | column: Minimum bactericidal concentration in μM^a
Where [6] appears, read: ref Krishnakumari et al. 2013 [44].

“Also recorded” adds a separate entry of the source. Like-named read-outs stand apart in the source and are kept apart here. Peptide text beside a SMILES is read from it.

On to `CC[C@H](C)[C@@H]1NC(=O)[C@H](CCC(=O)O)NC(=O)[C@@H]2CSSC[C@@H]3NC(=O)[C@H](Cc4ccc(O)cc4)NC(=O)[C@@H](NC(=O)[C@@H](NC(=O)[C@H](C)N)[C@@H](C)O)CSSC[C@@H](C(=O)N[C@@H](CCCNC(=N)N)C(=O)O)NC(=O)[C@H](CSSC[C@H](NC(=O)[C@H](CCCNC(=N)N)NC(=O)CNC(=O)[C@H]([C@@H](C)O)NC(=O)[C@H](CCCNC(=N)N)NC3=O)C(=O)N[C@@H](C)C(=O)N[C@@H]([C@@H](C)O)C(=O)N[C@@H](CCCNC(=N)N)C(=O)N[C@@H](CCC(=O)O)C(=O)N[C@@H](CO)C(=O)N[C@@H](CC(C)C)C(=O)N[C@@H](CO)C(=O)NCC(=O)N[C@@H](C(C)C)C(=O)N2)NC(=O)[C@H](CC(C)C)NC(=O)[C@H](CCCNC(=N)N)NC(=O)[C@H](Cc2ccc(O)cc2)NC(=O)[C@H](CC(C)C)NC(=O)[C@H](CCCNC(=N)N)NC(=O)CNC(=O)[C@H](CO)NC1=O` [HD5] (HELM PEPTIDE1{A.T.C.Y.C.R.T.G.R.C.A.T.R.E.S.L.S.G.V.C.E.I.S.G.R.L.Y.R.L.C.C.R}$PEPTIDE1,PEPTIDE1,3:R3-31:R3|PEPTIDE1,PEPTIDE1,5:R3-20:R3|PEPTIDE1,PEPTIDE1,10:R3-30:R3$$$V2.0; N-terminus and C-terminus assumed), for which, in the data set with E. coli, the “E. coli surface charge neutralizing ability (change in zeta potential)” value was “neutralizes the E. coli surface charge at much lower concentration than HNP4” and the “concentration found to neutralize the E. coli surface charge almost completely” value was 2.5 µM. For the same compound, in the data set with E. coli inner membrane [1], the “Intracellular accumulation of SYTOX green (E. coli inner membrane permeabilization)” value (from here on “Intracellular accumulation”) was “does not permeabilize the E. coli inner membrane; also recorded: faint localization of SYTOX green” and the “time at which SYTOX green accumulation is evident” value was 30 min. For the same compound, in the data set on E. coli inner membrane [2], the “Damage to the E. coli inner membrane (SYTOX green accumulation, time-lapse microscopy and fluorescent spectroscopy)” value (“Damage to the E. coli inner membrane” for short) is reported as “do not cause extensive damage to the E. coli inner membrane”. Also, the “Permeabilization of lipid vesicles (calcein release)” value (shortened to “Permeabilization … (calcein release)”) in data set [3] was “do not permeabilize membranes”. In addition, the “Morphology of self-assembled aggregates (electron micrographs)” value in data set [4] is listed as “rod-like structures”. The “incubation required to observe E. coli inner membrane perturbation” value in the data set with E. coli inner membrane [5] is listed as ~ 40 minutes.

Turning to `CC[C@H](C)[C@@H]1NC(=O)[C@H](CC(C)C)NC(=O)[C@@H]2CSSC[C@@H]3NC(=O)[C@H](CO)NC(=O)[C@@H](NC(=O)[C@@H](N)C(C)C)CSSC[C@@H](C(=O)N[C@H](C(=O)N[C@@H](CCCNC(=N)N)C(=O)N[C@H](C(=O)O)C(C)C)[C@@H](C)O)NC(=O)[C@H](CSSC[C@H](NC(=O)[C@H](Cc4ccccc4)NC(=O)[C@H](C(C)C)NC(=O)[C@H](CC(C)C)NC(=O)[C@H](CCCNC(=N)N)NC3=O)C(=O)N[C@@H](CCCNC(=N)N)C(=O)N[C@@H](CCCNC(=N)N)C(=O)N[C@@H]([C@@H](C)O)C(=O)N[C@@H](CCC(=O)O)C(=O)N[C@@H](CC(C)C)C(=O)N[C@@H](CCCNC(=N)N)C(=O)N[C@@H](C(C)C)C(=O)NCC(=O)N[C@@H](CC(N)=O)C(=O)N2)NC(=O)[C@H](Cc2ccc(O)cc2)NC(=O)[C@H]([C@@H](C)O)NC(=O)[C@H](Cc2ccccc2)NC(=O)[C@H](CO)NC(=O)[C@H](C(C)C)NC(=O)CNC(=O)CNC1=O` [HNP4] (HELM PEPTIDE1{V.C.S.C.R.L.V.F.C.R.R.T.E.L.R.V.G.N.C.L.I.G.G.V.S.F.T.Y.C.C.T.R.V}$PEPTIDE1,PEPTIDE1,2:R3-30:R3|PEPTIDE1,PEPTIDE1,4:R3-19:R3|PEPTIDE1,PEPTIDE1,9:R3-29:R3$$$V2.0; N-terminus and C-terminus assumed), in the data set on E. coli inner membrane [1], the “Intracellular accumulation” value is on record as “cytoplasmic accumulation of SYTOX green is evident” and the “time at which SYTOX green accumulation is evident” value is 11 min.

“AFTC^1HC^2RRSC^3YSTEYSYGTC^2TVMGINHRFC^3C^1L (bicyclic or more) [HD6]”: the “E. coli surface charge neutralizing ability (change in zeta potential)” value in the data set with E. coli was “neutralizes the E. coli surface charge more efficiently than HBD4 (+7), HBD1 (+ 4) and HNP3 (+2)”. For the same compound, the “Damage to the E. coli inner membrane” value with E. coli inner membrane [2] is “do not cause extensive damage to the E. coli inner membrane”. The “Permeabilization … (calcein release)” value in data set [3] was “do not permeabilize membranes”. Also, the “Morphology of self-assembled aggregates (electron micrographs)” value in data set [4] is “distinctive fibrillar morphology”.

On to “DHYNC^1VSSGGQC^2LYSAC^3PIFTKIQGTC^2YRGKAKC^1C^3K (bicyclic or more) [HBD1, human β-defensin, three disulfide bonds, purchased from Peptides International]”, for which the “E. coli surface charge neutralizing ability (change in zeta potential)” value in the data set with E. coli is “poor surface charge neutralizing ability”. Moreover, in the data set with E. coli inner membrane [1], the “Intracellular accumulation” value is reported as “faint accumulation of SYTOX green” and the “time at which SYTOX green accumulation is evident” value is ~ 20 min. Also, in the data set with E. coli inner membrane [2], the “Damage to the E. coli inner membrane” value is reported as “do not cause extensive damage to the E. coli inner membrane”. For the same compound, the “Permeabilization … (calcein release)” value in data set [3] is “do not permeabilize membranes”. Besides, in the data set with E. coli MG1655 (setting [6]), the Minimum bactericidal concentration is 8 µM.

On to “ELDRIC^1GYGTARC^2RKKC^3RSQEYRIGRC^2PNTYAC^1C^3LRKWDESLLNRTKP (bicyclic or more) [HBD4, human β-defensin, three disulfide bonds, purchased from Peptides International]”, for which the “Morphological features of FM4-64 stained E. coli inner membrane” value in the data set with E. coli inner membrane [1] (3 μM FM4-64, sub-lethal defensin concentration (HBD4 3 μM)) is “FM4-64 staining shows considerable diffusion into cytoplasm”. Also, the “Permeabilization … (calcein release)” value in data set [3] is “does not permeabilize PC:PG vesicles”. The Minimum bactericidal concentration with E. coli MG1655 (ref Sharma and Nagaraj 2012 [45]) was 5 µM.

In the case of “GIGDPVTC^1LKSGAIC^2HPVFC^3PRRYKQIGTC^2GLPGTKC^1C^3KKP (bicyclic or more) [HBD2, human β-defensin, three disulfide bonds, purchased from Peptides International]”, the Minimum bactericidal concentration in the data set on E. coli MG1655 (setting [6]) was 8 µM.

With “GIINTLQKYYC^1RVRGGRC^2AVLSC^3LPKEEQIGKC^2STRGRKC^1C^3RRKK (bicyclic or more) [HBD3, human β-defensin, three disulfide bonds, purchased from Peptides International]”, in the data set with E. coli, the “E. coli surface charge neutralizing ability (change in zeta potential)” value is recorded as “most efficient bacterial surface charge neutralizing ability” and the “concentration found to neutralize the E. coli surface charge almost completely” value came out at 0.5 µM. Further, the Minimum bactericidal concentration in the data set with E. coli MG1655 (setting [6]) was 2 µM.

Source of the values: article PMC5397029, “Variations in the interaction of human defensins with Escherichia coli: Possible implications in bacterial killing” (PLoS ONE, 2017).
